Measurements reported in patent US7384934B2, “Piperazine substituted aryl benzodiazepines” (Eli Lilly and Company, priority 2002, dated 2008).
Where a name gives a salt, the structure may show the parent alone. Read-outs that look alike come from different tables or passages of the source.

Columns and labels:
Dopamine D2 receptor = target: T1, Dopamine D2 receptor (Homo sapiens, UniProt P14416); assay: Dopamine D2 receptor binding assay ([125I]iodospiperone)
T1 construct: purchased Receptor Biology (now owned by NEN) RBHD2CM
T1 sequence (P14416 1-414 isoform P14416-2): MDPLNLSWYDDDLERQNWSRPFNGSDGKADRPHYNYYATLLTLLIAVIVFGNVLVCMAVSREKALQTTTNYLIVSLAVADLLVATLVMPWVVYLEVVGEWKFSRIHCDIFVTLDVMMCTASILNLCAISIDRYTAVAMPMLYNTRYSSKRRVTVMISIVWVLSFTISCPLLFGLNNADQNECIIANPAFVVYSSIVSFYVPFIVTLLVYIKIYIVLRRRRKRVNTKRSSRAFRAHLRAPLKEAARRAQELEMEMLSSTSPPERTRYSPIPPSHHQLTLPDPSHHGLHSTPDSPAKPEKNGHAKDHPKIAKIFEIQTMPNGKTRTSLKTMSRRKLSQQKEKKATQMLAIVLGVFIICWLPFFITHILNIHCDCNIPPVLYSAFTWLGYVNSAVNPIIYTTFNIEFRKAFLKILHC
Method: The assay buffers used are 50 mM Tris-HCl pH 7.4, 120 mM NaCl, 5 mM KCl, 5 mM MgCl2, 1 mM EDTA for the Dopamine D2s receptor binding assay. […] The membranes used are from Receptor Biology (now owned by NEN), Cat # RBHD2CM for the D2 receptor.
Compounds are obtained as 10 mM stocks in 100% DMSO. They are diluted to 1 mM in 100% DMSO by adding 180 μL DMSO to 20 μL of stock in 96 well plates using a multidrop. […] This is done using a TECAN robot.
The radioligand is diluted in assay buffer to provide 0.1 nM for the D2 assay. Each vial of membranes is diluted up to 92 mL in assay buffer. The final assay volume is 250 μL consisting of 210 μl of diluted membranes, 20 μL of compound or 10% DMSO for total binding, and 20 μL of diluted radioligand. The compounds are transferred from drug dilution plates into coming 96 well assay plates using a 96 well Multimek pipettor. Radioligand and membranes are added to assay plates using multidrop pipettors. Non-specific binding is determined in wells containing a final concentration of 5 μM haloperidol. The final drug concentration range in half logs is from 10 μM down to 0.1 nM.
After addition of drug, membrane, and ligand, the plates are incubated for 2 hours at room temperature. During this time 96 well Millipore filter plates (MAFBNOB50) are soaked for a least 30 minutes with 200 μL per well of 0.5% polyethyleneimine.
The 0.5% PEI is removed from filterplate wells using a TiterTek MAP aspirator and 200 μL of the incubation mixture is transferred from the incubation plate to the filterplate after mixing. This transfer is done using the 96 tip Mutimek pipettor. After transfer to the filterplate filterplates are extracted and ished twice with 220 μL per well of cold buffer on the MAP aspirator. The peel away bottoms are removed from the filterplates and 60 μL per well of microscint 20 scintillation fluid is added per well using a multidrop. […]

[1] = target: T2, hypothalamic histamine H1 receptors (Rattus norvegicus, UniProt P31390); assay: Histamine H1 ex vivo binding ([3H]-pyrilamine, rat hypothalamic homogenates); format: in vivo; conditions: rat hypothalamus; dose required to occupy 50% of histamine H1 receptors; 90 minutes after gavage
T2 construct: from tissue; host or cells: hypothalamus of male Sprague Dawley rats
T2 sequence (P31390 whole entry): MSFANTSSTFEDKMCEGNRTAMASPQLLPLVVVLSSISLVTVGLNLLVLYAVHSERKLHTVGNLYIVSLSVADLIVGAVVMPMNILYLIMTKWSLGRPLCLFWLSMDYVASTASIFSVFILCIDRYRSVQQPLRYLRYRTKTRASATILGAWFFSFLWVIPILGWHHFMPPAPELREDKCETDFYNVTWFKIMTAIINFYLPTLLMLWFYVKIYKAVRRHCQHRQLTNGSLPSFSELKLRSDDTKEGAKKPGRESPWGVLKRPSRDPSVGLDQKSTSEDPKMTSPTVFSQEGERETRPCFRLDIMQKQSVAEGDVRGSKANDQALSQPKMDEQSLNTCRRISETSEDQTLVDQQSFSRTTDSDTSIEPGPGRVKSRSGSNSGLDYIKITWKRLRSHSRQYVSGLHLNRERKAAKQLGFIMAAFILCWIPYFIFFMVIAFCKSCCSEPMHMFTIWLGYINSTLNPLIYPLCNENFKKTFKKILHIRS
Method: The in vivo potency of a compound to occupy hypothalamic histamine H1 receptors in the rat was determined using a histamine H1 ex vivo binding assay.
(§1) Male Sprague Dawley rats (Harlan Sprague Dawley, Inc., Indianapolis, Ind.) weighing 110 grams were fasted overnight. […] All other compounds were administered at 5 ml/kg in dilute lactic acid. Tissues were dissected, frozen on dry ice and stored at −70° C. prior to analysis.
Ex vivo binding of the histamine H1 antagonist [^3H]-pyrilamine (NEN Life Science Products) to rat hypothalamic homogenates was determined. Tissues were homogenized in 600 μl incubation buffer (50 mM sodium phosphate monobasic, pH 7.4) and pre-incubated 10 minutes at 37° C. to remove endogenous histamine. Triplicate tubes, each containing 100 μl homogenate, were combined with 1 ml buffer containing 3 nM [^3H]-pyrilamine and incubated 30 minutes at 25° C. […] [^3H]-pyrilamine binding was measured after separation filtration using a Brandell cell harvester with GF/C filters which had been soaked in 0.1% polyethylenimine. ED50 values were determined using the Allfit statistical program for displacement binding.

[2] = target: T3, human Histamine-1 receptors (Homo sapiens, UniProt P35367); assay: 3H-Pyrilamine SPA binding to human Histamine-1 receptors; conditions: read-out: Receptor affinity (Ki, nM) H1
T3 construct: expressed in transfected cells
T3 sequence (P35367 whole entry): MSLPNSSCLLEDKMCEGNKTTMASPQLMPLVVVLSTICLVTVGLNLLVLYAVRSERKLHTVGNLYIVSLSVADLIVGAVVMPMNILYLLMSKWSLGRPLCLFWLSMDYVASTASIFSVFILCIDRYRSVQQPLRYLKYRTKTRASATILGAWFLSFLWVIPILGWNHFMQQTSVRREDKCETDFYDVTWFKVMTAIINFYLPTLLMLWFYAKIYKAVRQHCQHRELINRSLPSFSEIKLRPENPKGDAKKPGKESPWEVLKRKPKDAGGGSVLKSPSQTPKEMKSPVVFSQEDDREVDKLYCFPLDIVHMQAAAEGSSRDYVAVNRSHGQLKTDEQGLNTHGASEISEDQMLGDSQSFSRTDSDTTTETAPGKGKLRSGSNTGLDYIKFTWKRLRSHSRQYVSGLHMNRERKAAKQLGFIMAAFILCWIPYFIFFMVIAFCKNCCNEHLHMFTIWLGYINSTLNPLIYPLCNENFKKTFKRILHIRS
Method: Their ability of a compound to block histamine H1 receptors can be estimated in vitro by measuring the in vitro histamine H1 receptor affinity. […] The ratio of in vitro histamine H1 receptor affinity divided by the in vitro dopamine D2 receptor affinity, both expressed as Ki's, is an estimate of a compound's likelihood to cause weight gain at therapeutic levels. […] Incubations were performed in a total volume of 200 μl in 96 well assay plates. 50 μl ^3H-pyrilamine (NEN, 20 Ci/mmol, final concentration=3.0 nM) was added to 50 μl of test compounds dissolved in water (±DMSO and/or glacial acetic acid). 50 μl Wheat Germ Agglutinin (WGA) bead, at 1 mg/well, (Amersham Life Sciences) in assay buffer (67 mM TrisCl pH 7.4) were then added. Membrane homogenate from cells expressing human Histamine-1 receptors, approximately 700,000 cells/well, was added last. The plates were covered with sealing tape (FasCal) and allowed to incubate at room temperature for 2 hours. The plates were then centrifuged at approximately 200×g for 10 minutes at room temperature. The amount of ^3H-pyrilamine bound to the membranes, ie proximate to the WGA bead, was then determined using a Wallac MicroBeta Trilux Scintillation Counter (Wallac, Inc.).

dopamine D2 receptors = target: T4, dopamine D2 receptors (Rattus norvegicus, UniProt P61169); assay: DOPAC concentrations in rat nucleus accumbens (in vivo D2 receptor blockade); conditions: dose that increases DOPAC to 200% of control, 90 minutes after gavage
T4 construct: from tissue; host or cells: male Sprague Dawley rats, nucleus accumbens (in vivo)
T4 sequence (P61169 whole entry): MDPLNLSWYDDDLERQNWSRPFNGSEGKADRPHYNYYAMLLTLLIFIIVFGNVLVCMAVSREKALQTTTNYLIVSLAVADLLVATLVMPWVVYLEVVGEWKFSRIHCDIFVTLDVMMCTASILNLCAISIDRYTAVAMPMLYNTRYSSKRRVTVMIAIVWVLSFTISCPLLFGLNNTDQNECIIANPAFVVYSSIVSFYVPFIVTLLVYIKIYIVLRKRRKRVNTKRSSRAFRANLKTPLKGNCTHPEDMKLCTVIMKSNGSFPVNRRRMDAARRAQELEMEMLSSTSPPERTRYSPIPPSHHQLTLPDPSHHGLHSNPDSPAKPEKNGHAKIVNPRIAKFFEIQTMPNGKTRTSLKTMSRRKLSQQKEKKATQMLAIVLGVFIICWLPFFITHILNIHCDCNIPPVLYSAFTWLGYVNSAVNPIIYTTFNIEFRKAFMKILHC
Method: Antipsychotics are believed to exert at least part of their therapeutic effects through blockade of the dopamine D2 receptor. The ability of a compound to block dopamine D2 receptors in the rat in vivo was determined by measuring the effect of the compound on the level of DOPAC (3,4-dihydroxyphenylacetic acid), a metabolite of dopamine, in nucleus accumbeus of the rat. Dopamine D2 receptor antagonists increase the release of dopamine into the synapse due to blockade of the dopamine D2 autoreceptor. This increased release of dopamine cannot be directly measured, since the efficiency of the dopamine reuptake system prevents increases in synaptic dopamine concentrations. Instead, increases in the levels of the dopamine metabolites DOPAC (3,4-dihydroxyphenylacetic acid) and HVA (homovanillic acid) reflect increased neuronal dopaminergic activity in vivo.
as §1
Rat nucleus accumbens DOPAC (3,4-dihydroxyphenylacetic acid) concentrations were measured using high-pressure liquid chromatography with electrochemical detection (HPLC-EC). Tissues were sonicated in 1 ml 0.1N TCA. After centrifugation, a 25 µl aliquot of supernatant was injected onto a BDS Hypersyl C18 column (150×4.6 mm, Keystone Scientific). The elution buffer contained 75 mM sodium phosphate monobasic, 0.5 mM EDTA, 350 mg/L 1-octanesulfonate sodium, 7% acetonitrile (v/v) and 0.7% tetrahydrofuran (v/v), pH 3.0. The flow rate was 1.2 ml/min at 40° C. Peak heights were measured at 750 mV at 10 nA sensitivity and compared with samples containing known amounts of DOPAC standards.

[3] = relative Ki scale of Table 5, read-out: Relative D2 Receptor Binding Affinity Ki
[4] = read-out: Receptor affinity (Ki, nM) D2

COCC[C@H]1CN(C2=Nc3ccccc3Nc3ccc(C)cc32)CCN1C [Example 216, (S)-2-Methyl-11-[3-(2-methoxy-ethyl)-4-methyl-piperazin-1-yl]-5H-dibenzo[b,e][1,4]diazepine]
melting point: 60 °C (dec.) | Ki (Dopamine D2 receptor; [3]): 100 to 1000 nM

COCC[C@H]1CN(C2=Nc3ccccc3Nc3sc(C(C)C)nc32)CCN1C.Cl.Cl [Example 327, (S)-10-[3-(2-Methoxyethyl)-4-methylpiperazin-1-yl]-2-isopropyl-4H-3-thia-1,4,9-triazabenzo[f]azulene dihydrochloride]
In vivo activity H1: H1 ex vivo binding (ED50) [1]: >30 mg/kg, po | Ki (Dopamine D2 receptor; [4]): 9 nM | Ki (Dopamine D2 receptor; [3]): < 10 nM | Ki [2]: 91 nM | In vivo activity D2: DOPAC elevation (ED200) (dopamine D2 receptors): 4 mg/kg, po

COCC[C@H]1CN(C2=Nc3cc(Cl)ccc3Nc3sc(C)cc32)CCN1C [Example 292, (S)-7-Chloro-10-[3-(2-methoxy-ethyl)-4-methyl-piperazin-1-yl]-2-methyl-4H-3-thia-4,9-diaza-benzo[f]azulene dihydrochloride]
In vivo activity H1: H1 ex vivo binding (ED50) [1]: >30 mg/kg, po | Ki (Dopamine D2 receptor; [4]): 13 nM | Ki [2]: 48 nM | In vivo activity D2: DOPAC elevation (ED200) (dopamine D2 receptors): 7.5 mg/kg, po

COCC[C@H]1CN(C2=Nc3cc(Cl)ccc3Nc3sc(C)cc32)CCN1 [Example 258, (S)-7-Chloro-10-[3-(2-methoxy-ethyl)-piperazin-1-yl]-2-methyl-4H-3-thia-4,9-diazabenzo[f]azulene]
melting point: 179 to 183 °C (dec.)

COCC[C@H]1CN(C2=Nc3cc(F)c(F)cc3Nc3sc(C)cc32)CCN1 [Example 254, (S)-6,7-Difluoro-10-[3-(2-methoxy-ethyl)-piperazin-1-yl]-2-methyl-4H-3-thia-4,9-diaza-benzo[f]azulene]
melting point: 198 to 202 °C (dec.)

COC[C@H]1CN(C2=Nc3ccccc3Nc3sc(C)cc32)CCN1C [Example 260, (R)-10-(3-Methoxymethyl-4-methyl-piperazin-1-yl)-2-methyl-4H-3-thia-4,9-diaza-benzo[f]azulene]
melting point: 76 to 80 °C

COCC[C@H]1CN(C2=Nc3cc(F)ccc3Nc3sc(C)cc32)CCN1C.Cl
melting point: 192 to 194 °C

Cc1cc2c(s1)Nc1ccccc1N=C2N1CCN(C)C(COc2ccccc2)C1 (stereo in doubt) [Example 271, (R)-10-(4-Methyl-3-phenoxymethyl-piperazin-1-yl)-2-methyl 4H-3-thia-4,9-diaza-benzo[f]azulene]
melting point: 74 to 88 °C

COCC[C@H]1CN(C2=Nc3ccc(F)cc3Nc3sc(C)cc32)CCN1C (as salt: hydrochloride) [Example 279a, (S)-6-Fluoro 10-[3-(2-methoxy-ethyl)-4-methyl-piperazin-1-yl]-2-methyl-4H-3-thia-4,9-diaza-benzo[f]azulene dihydrochloride]
melting point: 190 to 192 °C

COCC[C@H]1CN(C2=Nc3cc(F)c(F)cc3Nc3sc(C)cc32)CCN1C.Cl.Cl [Example 288, (S)-6,7-Difluoro-10-[3-(2-methoxy-ethyl)-4-methyl-piperazin-1-yl]-2-methyl-4H-3-thia-4,9-diaza-benzo[f]azulene hydrochloride]
In vivo activity H1: H1 ex vivo binding (ED50) [1]: >30 mg/kg, po | Ki (Dopamine D2 receptor; [4]): 11 nM | Ki [2]: 80 nM | In vivo activity D2: DOPAC elevation (ED200) (dopamine D2 receptors): 6.4 mg/kg, po

Cc1cc2c(s1)Nc1ccccc1N=C2N1CCN(C)[C@@H](COCc2ccccc2)C1 [Example 270, (R)-10-(3-Benzyloxymethyl-4-methyl-piperazin-1-yl)-2-methyl-4H-3-thia-4,9-diaza-benzo[f]azulene]
melting point: 55 to 65 °C

Cc1cc2c(s1)Nc1ccccc1N=C2N1CCN[C@H](CCO)C1.Cl.Cl [Example 241, (R)-2-[4-(2-Methyl-4H-3-thia-4,9-diazabenzo[f]azulene-10-yl)-piperazin-2-yl]ethanol dihydrochloride]
melting point: > 250 °C (dec.) | Ki (Dopamine D2 receptor; [3]): 100 to 1000 nM

Cc1cc2c(s1)Nc1ccccc1N=C2N1CCN[C@@H](COc2ccccc2)C1 [Example 244, (R)-10-(3-Phenoxymethyl-piperazin-1-yl)-2-methyl-4H-3-thia-4,9-diaza-benzo[f]azulene]
melting point: 64 to 81 °C

COCC[C@H]1CN(C2=Nc3ccccc3Nc3ccc(C)cc32)CCN1 [Example 199, (S)-2-Methyl-11-[3-(2-methoxy-ethyl)-piperazin-1-yl]-5H-dibenzo[b,e][1,4]diazepine]
melting point: 63 °C (dec.) | Ki (Dopamine D2 receptor; [3]): 100 to 1000 nM

Cc1cc2c(s1)Nc1ccccc1N=C2N1CCN[C@@H](CCO)C1.Cl.Cl [Example 240, (S)-2-[4-(2-Methyl-4H-3-thia-4,9-diazabenzo[f]azulene-10-yl)-piperazin-2-yl]ethanol dihydrochloride]
melting point: > 250 °C (dec.) | Ki (Dopamine D2 receptor; [3]): 10 to 100 nM

COCC[C@H]1CN(C2=Nc3ccccc3Nc3ccc(C(C)C)cc32)CCN1C (as salt: hydrochloride)
melting point: 210 °C

CCc1cc2c(s1)Nc1cc(F)ccc1N=C2N1CCN(C)[C@@H](CCOC)C1 (as salt: hydrochloride) [Example 280, (S)-6-Fluoro-10-[3-(2-methoxy-ethyl)-4-methyl-piperazin-1-yl]-2-ethyl-4H-3-thia-4,9-diaza-benzo[f]azulene dihydrochloride]
melting point: 186 to 188 °C

COCC[C@H]1CN(C2=Nc3ccc(F)cc3Nc3sc(C)cc32)CCN1 (as salt: hydrochloride) [Example 248b, (S)-6-Fluoro-10-[3-(2-methoxy-ethyl)-piperazin-1-yl]-2-methyl-4H-3-thia-4,9-diaza-benzo[f]azulene dihydrochloride]
melting point: 90 °C
